Laboratory results: patent US20240101570A1 (AMGEN INC., priority 2020, published 2024)

Columns and labels:
HCT116 MTAP null cells = assay: HCT116 MTAP null cell proliferation / viability (CellTiter-Glo, 6 days); assay type: cell-based; conditions: HCT116-MTAP null, 144 h, HCT116 MTAP null cells, 6 days, CellTiter-Glo; read-out: HCT-116 MTAP null IC50
In short: (§1)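 IC50 values derive from sigmoidal dose-response fits, some with Hill slope fixed at −1 and top constrained to 100%, others from 4-parameter logistic models. They reflect CellTiter-Glo viability after 6 days of compound exposure at up to 10 or 50 μM.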

HCT116 WT cells = assay: HCT116 WT cell proliferation / viability (CellTiter-Glo, 6 days); assay type: cell-based; conditions: Homo sapiens, HCT-116, 144 h, HCT116 WT cells, 6 days, CellTiter-Glo; read-out: HCT-116 WT IC50
In short: as §1

| SMILES | IC50 (HCT116 MTAP null cells) | IC50 (HCT116 WT cells) |
| --- | --- | --- |
| CCN(Cc1ccc(C(F)(F)F)cn1)C(=O)c1ccc2nc(N)c3c(cnn3C)c2c1 [Example 422, 4-amino-N-ethyl-3-methyl-N-((5-(trifluoromethyl)-2-pyridinyl)methyl)-3H-pyrazolo[3,4-c]quinoline-8-carboxamide] | 6740 nM | 10700 nM |
| CC(C)N(Cc1ccc(Cl)cn1)C(=O)c1ccc2nc(N)c3c(c2c1)CO[C@@H]3C [Example 423, (3R)-4-amino-N-((5-chloro-2-pyridinyl)methyl)-3-methyl-N-(2-propanyl)-1,3-dihydrofuro[3,4-c]quinoline-8-carboxamide] | 64 nM | 3980 nM |
| C[C@H]1OCc2c1c(N)nc1cnc(C(=O)N(Cc3ccc(OC(F)F)nn3)CC3CC3)cc21 [Example 424, (3R)-4-amino-N-(cyclopropylmethyl)-N-((6-(difluoromethoxy)-3-pyridazinyl)methyl)-3-methyl-1,3-dihydrofuro[3,4-c][1,7]naphthyridine-8-carboxamide] | 32 nM | 1340 nM |
| Nc1nc2ccc(C(=O)N(Cc3ccc(OC(F)F)nn3)CC3CC3)cc2c2c1COC2 [Example 426, 4-amino-N-(cyclopropylmethyl)-N-((6-(difluoromethoxy)-3-pyridazinyl)methyl)-1,3-dihydrofuro[3,4-c]quinoline-8-carboxamide] | 96 nM | 4220 nM |
| CN(Cc1ccc(C2=CCOCC2)cn1)C(=O)c1ccc2nc(N)c3c(c2c1)COC3 [Example 429, 4-amino-N-((5-(3,6-dihydro-2H-pyran-4-yl)-2-pyridinyl)methyl)-N-methyl-1,3-dihydrofuro[3,4-c]quinoline-8-carboxamide] | 1260 nM | 31800 nM |
| Cc1nn(C)c2c1c(N)nc1ccc(C(=O)N(Cc3ccc(C(F)(F)F)cn3)C(C)C)cc12 [Example 432, 4-amino-1,3-dimethyl-N-(2-propanyl)-N-((5-(trifluoromethyl)-2-pyridinyl)methyl)-1H-pyrazolo[4,3-c]quinoline-8-carboxamide] | 203 nM | 6390 nM |
| C[C@H](c1ncccn1)N(Cc1ccc(C(F)(F)F)cn1)C(=O)c1cc2c3c(c(N)nc2cc1F)COC3 [Example 435, 4-amino-7-fluoro-N-((1R)-1-(2-pyrimidinyl)ethyl)-N-((5-(trifluoromethyl)-2-pyridinyl)methyl)-1,3-dihydrofuro[3,4-c]quinoline-8-carboxamide] | 14 nM | 65 nM |
| C[C@H](c1ncccc1F)N(Cc1ccc(Br)nn1)C(=O)c1cc2c3c(c(N)nc2cc1F)COC3 [Example 437, 4-amino-N-((6-bromo-3-pyridazinyl)methyl)-7-fluoro-N-((1R)-1-(3-fluoro-2-pyridinyl)ethyl)-1,3-dihydrofuro[3,4-c]quinoline-8-carboxamide] | 31 nM | 353 nM |
| C[C@H](c1ncccn1)N(Cc1ccc(Cl)cn1)C(=O)c1ccc2nc(N)c3c(c2c1)COC3 [Example 439, 4-amino-N-((5-chloro-2-pyridinyl)methyl)-N-((1R)-1-(2-pyrimidinyl)ethyl)-1,3-dihydrofuro[3,4-c]quinoline-8-carboxamide] | 7 nM | 138 nM |
| C[C@@H](c1ncccn1)N(Cc1ccc(C(F)(F)F)nn1)C(=O)c1ccc2nc(N)c3c(c2c1)COC3 [Example 440, 4-amino-N-((1S)-1-(2-pyrimidinyl)ethyl)-N-((6-(trifluoromethyl)-3-pyridazinyl)methyl)-1,3-dihydrofuro[3,4-c]quinoline-8-carboxamide] | 461 nM | > 10000 nM |
| C[C@H](c1ncccn1)N(Cc1ccc(C(F)(F)F)nn1)C(=O)c1ccc2nc(N)c3c(c2c1)COC3 [Example 441, 4-amino-N-((1R)-1-(2-pyrimidinyl)ethyl)-N-((6-(trifluoromethyl)-3-pyridazinyl)methyl)-1,3-dihydrofuro[3,4-c]quinoline-8-carboxamide] | 12 nM | 204 nM |
| C[C@H](c1ncccc1F)N(Cc1ccc(C(F)(F)F)nn1)C(=O)c1ccc2nc(N)c3c(c2c1)COC3 [Example 442, 4-amino-N-((1R)-1-(3-fluoro-2-pyridinyl)ethyl)-N-((6-(trifluoromethyl)-3-pyridazinyl)methyl)-1,3-dihydrofuro[3,4-c]quinoline-8-carboxamide] | 9 nM | 177 nM |
| COC[C@@H](C)N(Cc1ccc(C(F)(F)F)cn1)C(=O)c1ccc2nc(N)c3c(c2c1)COC3 [Example 445, 4-amino-N-((2R)-1-methoxy-2-propanyl)-N-((5-(trifluoromethyl)-2-pyridinyl)methyl)-1,3-dihydrofuro[3,4-c]quinoline-8-carboxamide] | 8 nM | 153 nM |
| COc1ccc(CN(C(=O)c2ccc3nc(N)c4c(c3c2)COC4)[C@H](C)c2ncccn2)nn1 [Example 446, 4-amino-N-((6-methoxy-3-pyridazinyl)methyl)-N-((1R)-1-(2-pyrimidinyl)ethyl)-1,3-dihydrofuro[3,4-c]quinoline-8-carboxamide] | 12 nM | 237 nM |
| CC(C)N(Cc1ccc(C(F)(F)F)cn1)C(=O)c1ccc2nc(N)c3c(c2c1)COC3 [Example 451, 4-amino-N-(2-propanyl)-N-((5-(trifluoromethyl)-2-pyridinyl)methyl)-1,3-dihydrofuro[3,4-c]quinoline-8-carboxamide] | 32 nM | 4380 nM |

Continued, values first:

| IC50 (HCT116 MTAP null cells) | IC50 (HCT116 WT cells) | SMILES |
| --- | --- | --- |
| 2710 nM | > 50000 nM | C[C@@H]1OCc2c1c(N)nc1cnc(C(=O)N(Cc3ccc(OC(F)F)nn3)CC3CC3)cc21 [Example 425, (3S)-4-amino-N-(cyclopropylmethyl)-N-((6-(difluoromethoxy)-3-pyridazinyl)methyl)-3-methyl-1,3-dihydrofuro[3,4-c][1,7]naphthyridine-8-carboxamide] |
| 44 nM | 1680 nM | CCN(Cc1ccc(C(F)(F)F)cn1)C(=O)c1cc2c(cc1F)nc(N)c1c2cnn1C [Example 427, 4-amino-N-ethyl-7-fluoro-3-methyl-N-((5-(trifluoromethyl)-2-pyridinyl)methyl)-3H-pyrazolo[3,4-c]quinoline-8-carboxamide] |
| 101 nM | 1250 nM | CCN(Cc1ccc(C(F)(F)F)cn1)C(=O)c1ccc2nc(N)c3ccncc3c2c1 [Example 428, 5-amino-N-ethyl-N-((5-(trifluoromethyl)-2-pyridinyl)methyl)benzo[c][2,6] naphthyridine-9-carboxamide] |
| 312 nM | 12800 nM | COC(=O)N1CC=C(c2ccc(CN(C)C(=O)c3ccc4nc(N)c5c(c4c3)COC5)nc2)CC1 [Example 430, methyl 6-((((4-amino-1,3-dihydrofuro[3,4-c]quinolin-8-yl)carbonyl)(methyl)amino)methyl)-3′,6′-dihydro[3,4′-bipyridine]-1′(2′H)-carboxylate] |
| 14300 nM | 23500 nM | CC(C)N(Cc1ccc(C(F)(F)F)cn1)C(=O)c1ccc2[nH]c(=O)n3nccc3c2c1 [Example 431, 5-oxo-N-(2-propanyl)-N-((5-(trifluoromethyl)-2-pyridinyl)methyl)-5,6-dihydropyrazolo[1,5-c]quinazoline-9-carboxamide] |
| 584 nM | 23900 nM | CC(C)N(Cc1cnc(C(F)(F)F)cn1)C(=O)c1ccc2nc(N)c3c(c2c1)CO[C@@H]3C [Example 434, (3R)-4-amino-3-methyl-N-(2-propanyl)-N-((5-(trifluoromethyl)-2-pyrazinyl)methyl)-1,3-dihydrofuro[3,4-c]quinoline-8-carboxamide] |
| 29 nM | 187 nM | C[C@H](c1ncccn1)N(Cc1ccc(C#N)cn1)C(=O)c1cc2c3c(c(N)nc2cc1F)COC3 [Example 436, 4-amino-N-((5-cyano-2-pyridinyl)methyl)-7-fluoro-N-((1R)-1-(2-pyrimidinyl)ethyl)-1,3-dihydrofuro[3,4-c]quinoline-8-carboxamide] |
| 12 nM | 187 nM | C[C@H](c1ncccn1)N(Cc1ccc(C(F)F)cn1)C(=O)c1ccc2nc(N)c3c(c2c1)COC3 [Example 438, 4-amino-N-((5-(difluoromethyl)-2-pyridinyl)methyl)-N-((1R)-1-(2-pyrimidinyl)ethyl)-1,3-dihydrofuro[3,4-c]quinoline-8-carboxamide] |
| 127 nM | 7210 nM | Nc1nc2ccc(C(=O)N(Cc3ccc(C(F)(F)F)cn3)C3CC3)cc2c2c1COC2 [Example 443, 4-amino-N-cyclopropyl-N-((5-(trifluoromethyl)-2-pyridinyl)methyl)-1,3-dihydrofuro[3,4-c]quinoline-8-carboxamide] |
| 13 nM | 343 nM | COCC(COC)N(Cc1ccc(C(F)(F)F)cn1)C(=O)c1ccc2nc(N)c3c(c2c1)COC3 [Example 444, 4-amino-N-(1,3-dimethoxy-2-propanyl)-N-((5-(trifluoromethyl)-2-pyridinyl)methyl)-1,3-dihydrofuro[3,4-c]quinoline-8-carboxamide] |
| 31 nM | 256 nM | Nc1nc2ccc(C(=O)N(Cc3ccc(C(F)(F)F)cn3)C3CCCn4ncnc43)cc2c2c1COC2 [Example 447, 4-amino-N-((8R)-5,6,7,8-tetrahydro[1,2,4]triazolo[1,5-alpyridin-8-yl)-N-((5-(trifluoromethyl)-2-pyridinyl)methyl)-1,3-dihydrofuro[3,4-c]quinoline-8-carboxamide and 4-amino-N-((8S)-5,6,7,8-tetrahydro[1,2,4]triazolo[1,5-a]pyridin-8-yl)-N-((5-(trifluoromethyl)-2-pyridinyl)methyl)-1,3-dihydrofuro[3,4-c]quinoline-8-carboxamide] |
| 159 nM | 11500 nM | CN(Cc1ccc(C(F)(F)F)cn1)C(=O)c1ccc2nc(N)c3c(c2c1)COC3 [Example 450, 4-amino-N-methyl-N-((5-(trifluoromethyl)-2-pyridinyl)methyl)-1,3-dihydrofuro[3,4-c]quinoline-8-carboxamide] |
